Reference: ChEMBL document CHEMBL3881526, “Selective androgen receptor modulators and method of use thereof” (2007)
Calls of active or inactive are those of the source. No cut-off for these calls is given here.

Columns and labels:
[1] = tested on: Bone marrow cell; test: Induction of differentiation of rat primary bone marrow cells toward osteoblast lineage assessed as ALP activity at 1 uM by spectrophotometric analysis; assay type: functional, cell-based
[2] = tested on: Rattus norvegicus; test: Androgenic activity in ORX Sprague-Dawley rat assessed as restoration of prostate weight at 100 ug/day delivered at constant rate for 14 days via subcutaneous osmotic pumps; assay type: functional
[3] = tested on: Rattus norvegicus; test: Androgenic activity in ORX Sprague-Dawley rat assessed as restoration of seminal vesicles weight at 100 ug/day delivered at constant rate for 14 days via subcutaneous osmotic pumps; assay type: functional
[4] = tested on: Rattus norvegicus; test: Anabolic activity in ORX Sprague-Dawley rat assessed as restoration of levator ani muscle weight at 100 ug/day delivered at constant rate for 14 days via subcutaneous osmotic pumps; assay type: functional, tissue-based
[5] = tested on: Rattus norvegicus; test: Suppression of serum FSH in ORX Sprague-Dawley rat at 0.1 to 1 mg/day delivered at constant rate for 14 days via subcutaneous osmotic pumps; assay type: functional
[6] = tested on: Rattus norvegicus; test: Androgenic activity in ORX Sprague-Dawley rat assessed as restoration of prostate weight at 0.1 to 1 ug/day delivered at constant rate for 14 days via subcutaneous osmotic pumps; assay type: functional
[7] = tested on: Rattus norvegicus; test: Androgenic activity in ORX Sprague-Dawley rat assessed as restoration of seminal vesicles weight at 0.1 to 1 ug/day delivered at constant rate for 14 days via subcutaneous osmotic pumps; assay type: functional
[8] = tested on: Rattus norvegicus; test: Anabolic activity in ORX Sprague-Dawley rat assessed as restoration of levator ani muscle weight at 0.1 to 1 ug/day delivered at constant rate for 14 days via subcutaneous osmotic pumps; assay type: functional
[9] = tested on: Bone marrow cell; test: Induction of differentiation of rat primary bone marrow cells toward osteoblast lineage assessed as ALP activity at 10 nM to 100 nM by spectrophotometric analysis; assay type: functional, cell-based
[10] = tested on: Rattus norvegicus; test: Induction of […] bone density in OVX Sprague-Dawley rat at 3 mg/day administered daily by oral gavage measured after 45 days (reference value: 215 mg/mm'3); assay type: functional
[11] = tested on: Rattus norvegicus; test: Induction of […] bone density in ovary intact Sprague-Dawley rat at 3 mg/day administered daily by oral gavage measured after 45 days (reference value: 379 mg/mm'3); assay type: functional
[12] = tested on: Rattus norvegicus; test: Androgenic activity in intact Sprague-Dawley rat assessed as increase in prostate weight at 0.01 mg/day administered via oral gavage for 14 days relative to intact control; assay type: functional
[13] = species: Rattus norvegicus; test: Effect on serum LH in intact Sprague-Dawley rat at 0.1 mg/day measured for 14 days (reference value: 0.281 +/- 0.126 ng/ml); assay type: functional
[14] = species: Rattus norvegicus; test: Effect on serum LH in intact Sprague-Dawley rat at 0.3 mg/day measured for 14 days (reference value: 0.281 +/- 0.126 ng/ml); assay type: functional
[15] = species: Rattus norvegicus; test: Effect on serum LH in intact Sprague-Dawley rat at 0.75 mg/day measured for 14 days (reference value: 0.281 +/- 0.126 ng/ml); assay type: functional
[16] = species: Rattus norvegicus; test: Effect on serum LH in intact Sprague-Dawley rat at 1 mg/day measured for 14 days (reference value: 0.281 +/- 0.126 ng/ml); assay type: functional
[17] = tested on: Rattus norvegicus; test: Effect on serum LH in ORX Sprague-Dawley rat at 0.01 mg/day administered 9 days post ORX via oral gavage for 14 days (reference value: 9.66 +/- 1.13 ng/ml); assay type: functional
[18] = tested on: Rattus norvegicus; test: Effect on serum LH in ORX Sprague-Dawley rat at 0.3 mg/day administered 9 days post ORX via oral gavage for 14 days (reference value: 9.66 +/- 1.13 ng/ml); assay type: functional
[19] = tested on: Rattus norvegicus; test: Effect on serum LH in ORX Sprague-Dawley rat at 0.75 mg/day administered 9 days post ORX via oral gavage for 14 days (reference value: 9.66 +/- 1.13 ng/ml); assay type: functional
[20] = tested on: Rattus norvegicus; test: Effect on serum LH in ORX Sprague-Dawley rat at 1 mg/day administered 9 days post ORX via oral gavage for 14 days (reference value: 9.66 +/- 1.13 ng/ml); assay type: functional
[21] = species: Rattus norvegicus; test: Effect on serum FSH in intact Sprague-Dawley rat at 0.1 mg/day measured for 14 days (reference value: 6.40 +/- 1.58 ng/ml); assay type: functional
[22] = species: Rattus norvegicus; test: Effect on serum FSH in intact Sprague-Dawley rat at 0.75 mg/day measured for 14 days (reference value: 6.40 +/- 1.58 ng/ml); assay type: functional
[23] = species: Rattus norvegicus; test: Effect on serum FSH in intact Sprague-Dawley rat at 1 mg/day measured for 14 days (reference value: 6.40 +/- 1.58 ng/ml); assay type: functional
[24] = tested on: Rattus norvegicus; test: Effect on serum FSH in ORX Sprague-Dawley rat at 0.1 mg/day administered 9 days post ORX via oral gavage for 14 days (reference value: 43.45 +/- 4.97 ng/ml); assay type: functional
[25] = tested on: Rattus norvegicus; test: Effect on serum FSH in ORX Sprague-Dawley rat at 1 mg/day administered 9 days post ORX via oral gavage for 14 days (reference value: 43.45 +/- 4.97 ng/ml); assay type: functional
[26] = tested on: Rattus norvegicus; test: Androgenic activity in ORX Sprague-Dawley rat assessed as increase in prostate weight at 0.01 mg/day measured after delayed dosing administered 9 days post ORX via oral gavage for 14 days relative to intact control; assay type: functional
[27] = tested on: Rattus norvegicus; test: Androgenic activity in ORX Sprague-Dawley rat assessed as increase in prostate weight at 0.3 mg/day measured after delayed dosing administered 9 days post ORX via oral gavage for 14 days relative to intact control; assay type: functional
[28] = tested on: Rattus norvegicus; test: Androgenic activity in ORX Sprague-Dawley rat assessed as increase in prostate weight at 0.75 mg/day measured after delayed dosing administered 9 days post ORX via oral gavage for 14 days relative to intact control; assay type: functional
[29] = tested on: Rattus norvegicus; test: Androgenic activity in ORX Sprague-Dawley rat assessed as restoration in seminal vesicle weight at 0.01 mg/day measured after delayed dosing administered 9 days post ORX via oral gavage for 14 days relative to intact control; assay type: functional
[30] = tested on: Rattus norvegicus; test: Androgenic activity in ORX Sprague-Dawley rat assessed as restoration in seminal vesicle weight at 0.03 mg/day measured after delayed dosing administered 9 days post ORX via oral gavage for 14 days relative to intact control; assay type: functional
[31] = tested on: Rattus norvegicus; test: Androgenic activity in ORX Sprague-Dawley rat assessed as restoration in seminal vesicle weight at 0.3 mg/day measured after delayed dosing administered 9 days post ORX via oral gavage for 14 days relative to intact control; assay type: functional
[32] = tested on: Rattus norvegicus; test: Androgenic activity in ORX Sprague-Dawley rat assessed as restoration in seminal vesicle weight at 1 mg/day measured after delayed dosing administered 9 days post ORX via oral gavage for 14 days relative to intact control; assay type: functional
[33] = tested on: Rattus norvegicus; test: Anabolic activity in ORX Sprague-Dawley rat assessed as increase in levator ani muscle weight at 0.1 mg/day measured after delayed dosing administered 9 days post ORX via oral gavage for 14 days relative to intact control; assay type: functional
[34] = tested on: Rattus norvegicus; test: Androgenic activity in ORX Sprague-Dawley rat assessed as restoration of prostate weight measured after delayed dosing administered 9 days post ORX via oral gavage for 14 days; assay type: functional
[35] = tested on: Rattus norvegicus; test: Anabolic activity in ORX Sprague-Dawley rat assessed as restoration of levator ani muscle weight measured after delayed dosing administered 9 days post ORX via oral gavage for 14 days; assay type: functional
[36] = Drug uptake in human plasma at 1 to 100 mg administered as PEG300-based solution after 72 hrs; assay type: ADME, cell-free
[37] = Tmax in human plasma at 1 to 100 mg administered as PEG300-based oral solution; assay type: ADME, cell-free
[38] = Tmax in human plasma at 1 to 100 mg administered as solid oral dosage; assay type: ADME, cell-free
[39] = Terminal half life in human at 1 to 100 mg administered as PEG300-based solution after 72 hrs; assay type: ADME; conditions: in vivo, read-out: beta t1/2
[40] = tested on: Homo sapiens; test: Effect on regional fat level in healthy human at 1 mg administered daily via mouth for 14 days (reference value: 0.64%); assay type: functional
[41] = tested on: Homo sapiens; test: Effect on fat weight in healthy human at 1 mg administered daily via mouth for 14 days (reference value: 436 g); assay type: functional
[42] = tested on: Homo sapiens; test: Effect on regional fat level in healthy human at 3 mg administered daily via mouth for 14 days (reference value: 0.64%); assay type: functional
[43] = tested on: Homo sapiens; test: Effect on tissue weight in healthy human at 3 mg administered daily via mouth for 14 days (reference value: -8.24 g); assay type: functional
[44] = tested on: Homo sapiens; test: Effect on fat weight in healthy human at 3 mg administered daily via mouth for 14 days (reference value: 436 g); assay type: functional
[45] = tested on: Homo sapiens; test: Effect on bone mineral content in healthy human at 3 mg administered daily via mouth for 14 days (reference value: 36.47 g); assay type: functional
[46] = tested on: Homo sapiens; test: Effect on tissue fat level in healthy human at 10 mg administered daily via mouth for 14 days (reference value: 0.69%); assay type: functional, Adipose tissue
[47] = tested on: Homo sapiens; test: Effect on tissue weight in healthy human at 10 mg administered daily via mouth for 14 days (reference value: -8.24 g); assay type: functional
[48] = tested on: Homo sapiens; test: Effect on fat weight in healthy human at 10 mg administered daily via mouth for 14 days (reference value: 436 g); assay type: functional
[49] = tested on: Homo sapiens; test: Effect on regional fat level in healthy human at 30 mg administered daily via mouth for 14 days (reference value: 0.64%); assay type: functional
[50] = tested on: Homo sapiens; test: Effect on tissue fat level in truncal obese human at 30 mg administered daily via mouth for 14 days (reference value: 0.69%); assay type: functional, Adipose tissue
[51] = tested on: Rattus norvegicus; test: Reduction in serum cholesterol in male Sprague-Dawley rat at 3 mg/kg, po qd administered for 28 days; assay type: functional; parameters: scale not given: the % may be the effect or the level left
[52] = tested on: Rattus norvegicus; test: Reduction in serum cholesterol in female Sprague-Dawley rat at 100 mg/kg, po qd administered for 28 days; assay type: functional, organism-based
[53] = tested on: Rattus norvegicus; test: Increase in femoral maximum load in OVX Sprague-Dawley rat at 3 mg/day administered daily co-treated with 1 mg/day alendronate by oral gavage measured after 45 days; assay type: functional
[54] = tested on: Homo sapiens; test: Effect on lean weight level in healthy human at 3 mg administered daily via mouth for 14 days (reference value: 436.47 g); assay type: functional
[55] = tested on: Homo sapiens; test: Effect on lean weight level in healthy human at 10 mg administered daily via mouth for 14 days (reference value: 436.47 g); assay type: functional
[56] = tested on: Homo sapiens; test: Effect on lean weight level in truncal obese human at 3 mg administered daily via mouth for 14 days (reference value: 436.47 g); assay type: functional
[57] = tested on: Homo sapiens; test: Effect on lean weight level in truncal obese human at 30 mg administered daily via mouth for 14 days (reference value: 436.47 g); assay type: functional

Structure (SMILES): C[C@]12CCC(=O)C[C@@H]1CC[C@@H]1[C@@H]2CC[C@]2(C)[C@@H](O)CC[C@@H]12
- Activity [1]: Active

Structure (SMILES): CCC(=O)O[C@H]1CC[C@H]2[C@@H]3CCC4=CC(=O)CC[C@]4(C)[C@H]3CC[C@]12C
- Activity [2]: Active
- Activity [3]: Active
- Activity [4]: Active
- Activity [5]: Active

Structure (SMILES): C[C@](O)(COc1ccc(Cl)cc1)C(=O)Nc1ccc([N+](=O)[O-])c(C(F)(F)F)c1
- Activity [6]: <20%
- Activity [7]: <20%
- Activity [8]: Active

Structure (SMILES): C[C@](O)(COc1ccc(Br)cc1)C(=O)Nc1ccc([N+](=O)[O-])c(C(F)(F)F)c1
- Activity [6]: <40%
- Activity [7]: <40%
- Activity [8]: Active

Structure (SMILES): CC(O)(COc1ccc(C#N)cc1)C(=O)Nc1ccc(C#N)c(C(F)(F)F)c1 (stereo not drawn)
- Activity [1]: Active
- Activity [9]: Active
- Activity [10]: 406 mg/mm3
- Activity [11]: 398 mg/mm3
- Activity [12]: Active
- Activity [13]: 0.177 ng/mL
- Activity [14]: Below limit of detection
- Activity [15]: Below limit of detection
- Activity [16]: Below limit of detection
- Activity [17]: 8.45 ng/mL
- Activity [18]: Below limit of detection
- Activity [19]: Below limit of detection
- Activity [20]: Below limit of detection
- Activity [21]: 6.6 ng/mL
- Activity [22]: 4.3 ng/mL
- Activity [23]: 4.38 ng/mL
- Activity [24]: 20.69 ng/mL
- Activity [25]: 6.33 ng/mL
- Activity [26]: 9%
- Activity [27]: 50%
- Activity [28]: 62%
- Activity [29]: 7%
- Activity [30]: 9%
- Activity [31]: 49%
- Activity [32]: 67%
- Activity [33]: 103%
- ED50 [34]: 0.22 mg/kg
- Emax [34]: 75%
- ED50 [35]: 0.013 mg/kg
- Drug uptake [36]: Active
- Tmax [37]: 0.8 to 2.3 h
- Tmax [38]: 3.2 to 3.9 h
- half-life [39]: 19 to 22 h
- Activity [40]: 0.23%
- Activity [41]: 197.89 g
- Activity [42]: -0.22%
- Activity [43]: 728.89 g
- Activity [44]: -22.67 g
- Activity [45]: -32.22 g
- Activity [46]: 0.1%
- Activity [47]: 566.22 g
- Activity [48]: 197.44 g
- Activity [49]: 0.95%
- Activity [50]: -0.13%
- Activity [51]: 30%
- Activity [52]: Active
- Activity [53]: 207 N
- Activity [54]: 752.11 g
- Activity [55]: 368.67 g
- Activity [56]: 1569.44 g
- Activity [57]: 261 g

Structure (SMILES): C[C@](O)(COc1ccc(I)cc1)C(=O)Nc1ccc([N+](=O)[O-])c(C(F)(F)F)c1
- Activity [6]: <40%
- Activity [7]: <40%
- Activity [8]: Active

Structure (SMILES): C[C@](O)(COc1ccc(Cl)cc1)C(=O)Nc1ccc(C#N)c(C(F)(F)F)c1
- Activity [6]: Dose-dependent effect
- Activity [7]: Dose-dependent effect
- Activity [8]: Active
